Patent publication US20260000676A1, “CHROMAN DERIVATIVES AS ESTROGEN RECEPTOR DEGRADERS” (THE REGENTS OF THE UNIVERSITY OF MICHIGAN, priority 2022, published 2026)
Read-outs that look alike come from different tables or passages of the source.

How the values were obtained:
ER [1] = target: T1, ER (Homo sapiens (Human), UniProt P03372); assay: In-cell western (ICW) ER degradation assay in MCF-7 cells; format: cell-based; conditions: MCF7, 16 hrs; for DC50: ER degradation; for MCF7 Dmax %: maximal ER degradation; for Dmax: MCF7, maximal ER degradation
T1 sequence (P03372 whole entry): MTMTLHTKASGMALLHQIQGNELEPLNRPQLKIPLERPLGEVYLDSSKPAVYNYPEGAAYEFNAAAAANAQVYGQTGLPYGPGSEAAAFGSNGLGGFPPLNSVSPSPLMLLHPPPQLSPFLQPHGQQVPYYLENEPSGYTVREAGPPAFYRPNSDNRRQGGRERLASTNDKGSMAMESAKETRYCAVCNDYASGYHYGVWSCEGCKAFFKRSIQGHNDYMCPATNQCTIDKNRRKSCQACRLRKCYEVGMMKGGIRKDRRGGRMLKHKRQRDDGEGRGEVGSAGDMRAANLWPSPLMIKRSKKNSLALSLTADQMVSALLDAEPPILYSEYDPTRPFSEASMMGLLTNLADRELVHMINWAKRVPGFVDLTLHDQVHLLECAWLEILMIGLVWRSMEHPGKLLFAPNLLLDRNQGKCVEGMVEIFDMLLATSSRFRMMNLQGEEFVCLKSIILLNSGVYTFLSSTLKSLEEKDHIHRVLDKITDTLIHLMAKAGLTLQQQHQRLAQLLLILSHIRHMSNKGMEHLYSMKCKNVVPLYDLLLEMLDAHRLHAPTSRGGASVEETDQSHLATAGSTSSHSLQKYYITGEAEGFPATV

MCF-7 cells [2] = conditions: read-out: MCF7 Proliferation IC50; CellTiter-Glo, day 6
Description: (§1) In vitro assay can be accomplished by MCF-7 and T47D Cell Titer Glo (CTG) assay. MCF-7 and T47D cell (From HDB) are cultured in multi-well white plate with phenol red-free RPMI1640+10% CS-FBS+1% P/S medium (e.g., at 1,000 cells/well). On day 0: Cells are treated with compound at certain concentrations (e.g., 0.5 to 10000 nM) (DMSO and Staurosporine as control). On day 0 and day 6: add Cell Titer Glo reagent and read on EnVision after 30 min incubation for data generation.
(§2) • 1) Cell culture medium: phenol red-free RPMI1640+10% CS-FBS, 1% P/S
(§3) Day-1: MCF-7 and T47D cell (From HDB) were cultured in 384-well white plate with phenol red-free RPMI1640+10% CS-FBS+1% P/S medium (1,000 cells/well) for overnight at 37° C., 5% CO2 incubator.
(§4) Day 0: Cells were treated at desired compound concentrations (0.5 to 10000 nM) (DMSO and Staurosporine as control) for Day 6 at 37° C., 5% CO2 incubator.
(§5) Day 0 and Day 6: add Cell TiterGlo reagent and read on EnVision after 30 min incubation for data generation.

T47D cells [3] = conditions: read-out: T47D Proliferation IC50; CellTiter-Glo, day 6
Description: as §1, §2, §3, §4, §5

ER [4] = target: T1, ER; assay: In-cell western (ICW) ER degradation assay in T47D cells; format: cell-based; conditions: 16 hrs; for DC50: ER degradation; for T47D Dmax % / Dmax: maximal ER degradation
CRBN/DDB1 = CRBN/DDB1 (Homo sapiens (Human), UniProt Q96SW2); assay: HTRF binding assay to CRBN/DDB1
Chain of CRBN/DDB1 (Q96SW2 whole entry): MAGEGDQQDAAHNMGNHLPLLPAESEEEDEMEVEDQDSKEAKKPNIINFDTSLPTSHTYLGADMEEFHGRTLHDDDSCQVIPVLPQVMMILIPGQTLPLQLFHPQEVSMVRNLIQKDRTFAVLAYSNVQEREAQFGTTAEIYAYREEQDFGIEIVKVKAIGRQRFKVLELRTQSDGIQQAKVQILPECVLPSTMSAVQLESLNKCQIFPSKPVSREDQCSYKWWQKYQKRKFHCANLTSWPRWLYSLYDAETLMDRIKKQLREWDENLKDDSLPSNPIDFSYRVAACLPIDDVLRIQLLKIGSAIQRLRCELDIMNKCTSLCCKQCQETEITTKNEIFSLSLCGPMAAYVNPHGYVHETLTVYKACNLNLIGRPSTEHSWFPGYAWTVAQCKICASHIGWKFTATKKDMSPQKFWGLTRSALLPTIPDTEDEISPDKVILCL
Chain of CRBN/DDB1 (Q16531 whole entry partner): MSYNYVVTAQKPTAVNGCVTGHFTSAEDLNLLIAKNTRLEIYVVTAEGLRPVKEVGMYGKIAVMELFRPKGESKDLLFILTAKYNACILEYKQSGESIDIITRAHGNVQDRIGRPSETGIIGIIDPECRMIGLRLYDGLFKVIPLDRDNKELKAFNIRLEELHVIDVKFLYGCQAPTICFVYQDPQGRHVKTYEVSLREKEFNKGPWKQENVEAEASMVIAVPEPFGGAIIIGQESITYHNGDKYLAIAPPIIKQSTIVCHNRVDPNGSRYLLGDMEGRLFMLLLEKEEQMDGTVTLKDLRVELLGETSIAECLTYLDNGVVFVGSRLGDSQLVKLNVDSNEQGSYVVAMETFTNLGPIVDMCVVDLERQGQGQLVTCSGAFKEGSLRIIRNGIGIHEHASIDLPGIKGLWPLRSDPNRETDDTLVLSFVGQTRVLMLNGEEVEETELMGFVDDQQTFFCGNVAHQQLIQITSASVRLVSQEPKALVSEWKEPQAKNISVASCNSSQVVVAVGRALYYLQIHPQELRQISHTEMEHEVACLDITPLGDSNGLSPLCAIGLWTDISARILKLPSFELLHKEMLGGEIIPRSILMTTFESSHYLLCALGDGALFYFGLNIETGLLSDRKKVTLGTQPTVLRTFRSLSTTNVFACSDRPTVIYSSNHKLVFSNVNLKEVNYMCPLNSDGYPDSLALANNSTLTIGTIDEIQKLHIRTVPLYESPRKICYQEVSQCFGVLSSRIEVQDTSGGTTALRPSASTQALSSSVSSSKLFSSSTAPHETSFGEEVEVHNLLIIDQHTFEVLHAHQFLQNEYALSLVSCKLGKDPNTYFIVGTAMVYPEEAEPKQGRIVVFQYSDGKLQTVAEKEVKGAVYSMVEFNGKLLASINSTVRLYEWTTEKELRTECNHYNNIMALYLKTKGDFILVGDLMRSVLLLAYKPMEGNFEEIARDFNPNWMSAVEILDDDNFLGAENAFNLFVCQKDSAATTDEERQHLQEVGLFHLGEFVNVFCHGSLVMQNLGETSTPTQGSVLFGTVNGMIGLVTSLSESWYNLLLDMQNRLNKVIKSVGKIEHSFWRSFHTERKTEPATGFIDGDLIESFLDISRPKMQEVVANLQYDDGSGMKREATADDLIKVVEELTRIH
Description: The binding potency was determined using HTRF assay technology (Perkin Elmer). Compounds were serially diluted in DMSO and 0.2 μL volume was transferred to white 384-well plate.

T47D cell line = assay: Cell growth assay (WST-8) in T47D cell line; format: cell-based; conditions: Homo sapiens, 96 h, WST-8, 4 days, read-out: Cell Growth Inhibition in T47D cell line IC50
Description: Cell Growth Assay. The cells are seeded at certain concentration (e.g., at 1500/well) in multi-well plates overnight. Cells are subsequently treated with the compounds. A certain period of time (e.g., 4 days) after the compound treatment, 10% WST-8 reagent is added to the culture medium and incubate under certain conduction (e.g., in a CO2 incubator at 37° C. for 2.5 hours). The absorbance is measured on each sample using a microplate reader at certain wavelength (e.g., 450 nm). The relative absorbance is calculated against the vehicle control from three individually repeats.
Cell Growth Assay. The cells were seeded at 1500/well in 96 well plates overnight. One day after the seeding, they were treated with indicated doses of compounds respectively. 4 days after the compound treatment, 10% WST-8 reagent was added to the culture medium and incubate in a CO2 incubator at 37° C. for 2.5 hours. Before reading, the plate was mixed gently on an orbital shaker for one minute to ensure homogeneous distribution of color. The absorbance was measured of each sample using a microplate reader at a wavelength of 450 nm. The relative absorbance was calculated against the vehicle control from three individually repeats.

ER [5] = target: T1, ER; assay: In-cell western blot analysis (Compounds B1 to B5); format: cell-based; conditions: 16 hours; read-out: ICW DC50
Description: In-cell western blot analysis. Cells are seeded in multi-well plates (e.g., at 40,000 or 10,000 cells/well). Diluted compounds at certain concentration are added (final 0.5% DMSO) and cells are incubated for a certain period of time (e.g., 16 hours). Formaldehyde (e.g., PBS:FA=9:1) is added and followed by washing with PBS. The cells are blocked with Licor blocking buffer (Li-Cor). The relative ER percentage in treated cells were obtained by comparing the values of treated wells to those in untreated and DMSO-treated wells as 100%.
In-cell western blot analysis, a. seed cells in black-sided/clear bottom 96- or 384-well plates at 40,000 or 10,000 cells/well, overnight; b, add diluted compounds (final 0.5% DMSO), 16 hours. 16 h later, remove medium, add 100 μL or 25 µL of 3.7-4.0% formaldehyde (PBS: FA=9:1), RT 20 min, no shaking; c. wash with PBS, and permeabilized with 100 μL or 25 μL/well of 1×PBS+0.1% Triton X-100 10 minutes; d. block with 100 μL or 25 L Licor blocking buffer (Li-Cor), RT 1 h, moderate shaking; d. Add 100 μL or 25 μL of anti-ER (cs-8644, 1:500-1,000)+GAPDH (Millipore MAB374, 1:1000) in Block+0.05% Tween 20. RT 2 h, gentle shaking. Negative control: cells plus secondary antibodies (no primary antibodies); e. wash×4 with PBS+0.05-0.1% Tween 20, gentel shaking; f, anti-rabbit-680 and anti-mouse-800 (both 1:1000 in LiCor block+0.05% Tween20, RT 1 h, gentle shaking, no light. LI-COR: 0.2% to reduce background; g. wash×4 with PBS+0.05% Tween 20, gental shaking; h, add 100 μL or 25 μL of PBS to each well and read on CLX plate reader. The relative ER percentage in treated cells were obtained by comparing the values of treated wells to those in untreated and DMSO-treated wells as 100%.

ERα_LBD(GST) = ERα_LBD(GST) (Homo sapiens (Human), UniProt P03372); assay: LanthaScreen TR-FRET ERα competitive binding assay; conditions: read-out: ERα HTRF IC50
Chain of ERα_LBD(GST) (P03372 311-547): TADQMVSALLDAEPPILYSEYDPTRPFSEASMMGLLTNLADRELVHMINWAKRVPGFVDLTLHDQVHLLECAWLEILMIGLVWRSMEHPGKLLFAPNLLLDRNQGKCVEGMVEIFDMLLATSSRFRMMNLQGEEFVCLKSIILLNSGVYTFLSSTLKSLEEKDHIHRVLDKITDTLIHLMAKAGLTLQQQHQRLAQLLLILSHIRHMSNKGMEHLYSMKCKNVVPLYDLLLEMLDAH
Method in brief: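 GST-tagged ERα LBD (4 nM) with Tb anti-GST (2 nM) and Fluormone ES2 Green tracer (3 nM) in nuclear receptor buffer K plus 5 mM DTT, 1% DMSO; 3-fold compound dilutions, 60 min at room temperature in the dark. TR-FRET 520/495 nm ratio vs log[ligand], sigmoidal fit for IC50; 1 μM ARV_471 as full-inhibition control.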

MCF-7 cells [6] = assay: cells; conditions: Homo sapiens, MCF7, 144 h, read-out: MCF7 Proliferation IC50 (nM)
Description: as §1, §2, §3, §4, §5

T47D cells [7] = assay: cells; conditions: Homo sapiens, 144 h, read-out: T47D Proliferation IC50 (nM)
Description: as §1, §2, §3, §4, §5

SMILES	DC50 (ER [1]) [nM]	DC50 (ER [4]) [nM]	IC50 (T47D cell line) [nM]	DC50 (ER [5]) [nM]	Dmax (ER [1]) [%]	Dmax (ER [4]) [%]	IC50 (CRBN/DDB1; read-out: CRBN HTRF IC50) [nM]	IC50 (ERα_LBD(GST)) [nM]	other results
O=C1CCC(N2Cc3cc(N4CCN(CC5CC6(CCN(c7ccc([C@@H]8c9ccc(O)cc9OC[C@@H]8c8ccccc8)cn7)CC6)C5)CC4)ccc3C2=O)C(=O)N1 (single isomer, unassigned) [Compound A92]	< 1	< 1	–	–	–	–	–	–	MCF7 Dmax % (ER [1]): B (“B”: >50% and <75%); IC50 (MCF-7 cells [2]): < 50 nM; IC50 (T47D cells [3]): < 50 nM; T47D Dmax % (ER [4]): B (“B”: >50% and <75%); IC50 (CRBN/DDB1; CRBN HTRF IC50 (nM)): > 5000 nM
O=C1CCC(N2Cc3c(ccc4c3OC[C@H]3CN(CC5CC6(CCN(c7ccc(C8c9ccc(O)cc9OCC8c8ccccc8)cc7)CC6)C5)CCN43)C2=O)C(=O)N1 (some centres unmarked) [Compound B2]	–	–	> 10	> 100	–	–	–	–	–
O=C1CCC(N2C(=O)c3cc4c(cc3C2=O)CN(CC(=O)N2CCC3(CC2)CCN(c2ccc(C5c6ccc(O)cc6OCC5c5ccccc5)cc2)CC3)C4)C(=O)N1 (centres unmarked) [Compound B5, 2-(2,6-dioxopiperidin-3-yl)-6-(2-(9-(4-(7-hydroxy-3-phenylchroman-4-yl)phenyl)-3,9-diazaspiro[5.5]undecan-3-yl)-2-oxoethyl)-6,7-dihydropyrrolo[3,4-f]isoindole-1,3(2H,5H)-dione]	–	–	> 10	> 100	–	–	–	–	–
O=C1CCC(N2Cc3cc(N4CCN(CC5CC6(CCN(c7ccc([C@H]8c9ccc(O)cc9OC[C@H]8c8ccccc8)cn7)CC6)C5)CC4)ccc3C2=O)C(=O)N1 (stereo partly drawn) [Compound A98, (R)-3-(5-(4-((7-(5-((3R,4S)-7-hydroxy-3-3-phenylchroman-4-yl)pyridin-2-yl)-7-azaspiro[3.5]nonan-2-yl)methyl)piperazin-1-yl)-1-oxoisoindolin-2-yl)piperidine-2,6-dione]	< 1	< 1	–	–	≥ 75	≥ 75	50 to 500	–	IC50 (MCF-7 cells [2]): < 50 nM; IC50 (T47D cells [3]): < 50 nM
O=C1CCC(N2Cc3cc4c(cc3C2=O)OC[C@@H]2CN(CC3CC5(CCN(c6ccc(C7c8ccc(O)cc8OCC7c7ccccc7)cc6)CC5)C3)CCN42)C(=O)N1 (stereo partly drawn) [Compound B3, 3-((4aS)-3-((7-(4-(7-hydroxy-3-phenylchroman-4-yl)phenyl)-7-azaspiro[3.5]nonan-2-yl)methyl)-8-oxo-1,2,3,4,4a,5,8,10-octahydro-9H-pyrazino[1′,2′:4,5] [1,4]oxazino[2,3-f]isoindol-9-yl) piperidine-2,6-dione]	–	–	> 10	> 100	–	–	–	–	–
O=C1CCC(N2Cc3cc4c(cc3C2=O)OC[C@@H]2CN(CC3CCC5(CC3)CN(c3ccc([C@@H]6c7ccc(O)cc7OC[C@@H]6c6ccccc6)cc3)C5)CCN42)C(=O)N1 (stereo partly drawn) [Compound A53, 3-((S)-3-((2-(4-((3S,4R)-7-hydroxy-3-phenylchroman-4-yl)phenyl)-2-azaspiro[3.5]nonan-7-yl)methyl)-8-oxo-1,2,3,4,4a,5,8,10-octahydro-9H-pyrazino[1′,2′:4,5][1,4]oxazino[2,3-f]isoindol-9-yl)piperidine-2,6-dione]	1 to 10	1 to 10	–	–	–	–	500 to 5000	< 5	MCF7 Dmax % (ER [1]): B (“B”: >50% and <75%); IC50 (MCF-7 cells [2]): 50 to 500 nM; IC50 (T47D cells [3]): 50 to 500 nM; T47D Dmax % (ER [4]): A (“A”; >=75%)
O=C1CC[C@@H](N2Cc3c(ccc4c3OCC43CCN(CC4CCC5(CC4)CN(c4ccc([C@H]6c7ccc(O)cc7OC[C@H]6c6ccccc6)cc4)C5)CC3)C2=O)C(=O)N1 [Compound A154, (R)-3-(1′-((2-(4-((3R,4S)-7-hydroxy-3-phenylchroman-4-yl)phenyl)-2-azaspiro[3.5]nonan-7-yl)methyl)-6-oxo-6,8-dihydro-2H,7H-spiro[furo[2,3-e]isoindole-3,4′-piperidin]-7-yl)piperidine-2,6-dione]	< 1	< 1	–	–	50 to 75	≥ 75	< 50	< 5	IC50 (MCF-7 cells [6]): < 50 nM; IC50 (T47D cells [7]): < 50 nM
O=C1CCC(N2Cc3c(ccc4c3OC[C@H]3CN(CC5CCN(c6ccc(C7c8ccc(O)cc8OCC7c7ccccc7)cc6)CC5)CCN43)C2=O)C(=O)N1 (stereo partly drawn) [Compound B1, 3-((5aR)-7-((1-(4-(7-hydroxy-3-phenylchroman-4-yl)phenyl)piperidin-4-yl)methyl)-1-oxo-1,3,5,5a,6,7,8,9-octahydro-2H-pyrazino[1′,2′:4,5][1,4]oxazino[2,3-e]isoindol-2-yl) piperidine-2,6-dione]	–	–	> 10	> 100	–	–	–	–	–
O=C1CC[C@@H](N2Cc3cc4c(cc3C2=O)OC[C@H]2CN(CC3COC5(CCN(c6ccc([C@H]7c8ccc(O)cc8OC[C@H]7c7ccccc7)cc6)CC5)C3)CCN42)C(=O)N1 (stereo partly drawn) [Compound A138, (3R)-3-((4aR)-3-((8-(4-((3R,4S)-7-hydroxy-3-phenylchroman-4-yl)phenyl)-1-oxa-8-azaspiro[4.5]decan-3-yl)methyl)-8-oxo-1,2,3,4,4a,5,8,10-octahydro-9H-pyrazino[1′,2′:4,5][1,4]oxazino[2,3-f]isoindol-9-yl)piperidine-2,6-dione]	< 1	< 1	–	–	≥ 75	50 to 75	50 to 500	< 5	IC50 (MCF-7 cells [6]): < 50 nM; IC50 (T47D cells [7]): < 50 nM
O=C1CCC(N2Cc3c(ccc4c3OCC43CCN(CC4CC5(CCN(c6ccc(C7c8ccc(O)cc8OCC7c7ccccc7)cc6)CC5)C4)CC3)C2=O)C(=O)N1 (centres unmarked) [Compound B4, 3-(1′-((7-(4-(7-hydroxy-3-phenylchroman-4-yl)phenyl)-7-azaspiro[3.5]nonan-2-yl)methyl)-6-oxo-6,8-dihydro-2H,7H-spiro[furo [2,3-e]isoindole-3,4′-piperidin]-7-yl)piperidine-2,6-dione]	–	–	> 10	> 100	–	–	–	–	–
COc1cc(C(=O)NC2CCC(=O)NC2=O)ncc1N1CCN(CC2CCC3(CC2)CN(c2ccc([C@H]4c5ccc(O)cc5OC[C@H]4c4ccccc4)cc2)C3)CC1 (mixture of isomers) [Compound A117, N-(2,6-dioxopiperidin-3-yl)-5-(4-((2-(4-((3R,4S)-7-hydroxy-3-phenylchroman-4-yl)phenyl)-2-azaspiro[3.5]nonan-7-yl)methyl)piperazin-1-yl)-4-methoxypicolinamide]	< 1	< 1	–	–	≥ 75	≥ 75	500 to 5000	< 5	IC50 (MCF-7 cells [6]): < 50 nM; IC50 (T47D cells [7]): < 50 nM
